# Reference: patent US20140155321A1, “Polypeptides and Their Use” (Novabiotics Limited, priority 2012, published 2014)
# Where two headings read alike, the source gives them in different places.
# Experiments:
# M. furfur DSMZ6170 [1] = experiment: Antifungal efficacy in conditioner vehicles, surviving colony count; assay type: cell-based, Malassezia furfur; details: for killing of M. furfur: 60 min exposure
# Protocol: The antifungal efficacy of NP108 was tested in a conditioner vehicle. The following materials were tested: • 1. 10% (v/v) Head & Shoulders conditioner (anti-dandruff conditioner) • 2. 10% (v/v) Pantene conditioner (“normal” conditioner) • 3. 10% (v/v) Pantene conditioner (“normal” conditioner)+4% (w/v) NP 108 • 4. Phosphate Buffered Saline (PBS)
# (§1) All yeast inocula for this experiment were prepared to the 0.5 McFarland Standard. 400 μl of yeast inoculum was exposed to 100 μl of the materials described above for 1 h at 37° C., followed by washing to remove all traces of the materials. Serial dilutions of the yeasts were prepared (10^0-10^−5; 10-fold dilutions) and 100 μl was spread on Modified Christensen's Medium and incubated at 30° C. for 48 h and numbers of surviving colonies counted. All experiments were carried out in triplicate.
# (§2) In a further experiment, the effect of incubation time on killing of Malassezia spp. was investigated. The following materials were tested: • 1. 0.04% (w/v) Zinc Pyrithione in 19.2% (v/v) Head &Shoulders conditioner • 2. 1.0% (w/v) NP108 in 19.2% (v/v) Head & Shoulders conditioner • 3. 19.2% (v/v) Head & Shoulders conditioner
# as §1, with “[…]” for “400 μl”, “above and incubated at 30° C.” for “above”, “for 0, 3, 10, 30 or 60 min,” for “for 1 h at 37° C.,”
# In the following experiment, all samples of M. furfur DSMZ6170 (0.5 McFarland Standard) were exposed to 10% (v/v) H & S Conditioner, containing 10.0 (1.0%) mg/ml NP108 or 0.4 mg/ml zinc pyrithione (the active ingredient in H & S shampoo). The control samples were exposed to 10% (v/v) H & S Conditioner. The negative control samples were exposed to water alone (data not shown).
# In the following experiment, all samples of M. furfur DSMZ6170 (0.5 McFarland Standard) were exposed to 10% (v/v) H & S Conditioner or 10% (v/v) Pantene Conditioner and a further treatment of 40 mg/ml NP108 (4.0%) in 10% (v/v) Pantene Conditioner. The control sample was exposed to PBS alone. All incubations were carried out for 60 min.
# M. furfur DSMZ6170 [2] = details: 0.4 mg/ml zinc pyrithione, under in vitro conditions (not in conditioner)
# [3] = test system: human dermal fibroblast (BJ) cells; experiment: Cytotoxicity versus human dermal fibroblast (BJ) cells; assay type: cell-based; details: BJ fibroblasts
# Protocol: (§3) Haematotoxicity versus 10% human red blood cells and cyctotoxicity versus human dermal fibroblast (BJ) cells and human lung epithelial (A549) cells was determined by standard in vitro procedures known to those skilled in the art (Table 1 and FIG. 1).
# M. pachydermatis CBS6536 [4] = experiment: Antifungal efficacy in Head & Shoulders conditioner, surviving colony count; assay type: cell-based, Malassezia pachydermatis; details: FIG. 6
# Protocol: as §2
# as §1, with “[…]” for “400 μl”, “above and incubated at 30° C.” for “above”, “for 0, 3, 10, 30 or 60 min,” for “for 1 h at 37° C.,”
# In the following experiment, all samples of M. pachydermatis CBS6536 (0.5 McFarland Standard) were exposed to 10% (v/v) Head & Shoulders (H & S) Conditioner, containing 0 (0%), 1.0 (0.1%) or 10.0 (1.0%) mg/ml NP108. The positive control samples were exposed to 10% (v/v) Head & Shoulders Conditioner. The negative control samples were exposed to water alone.
# M. furfur DSMZ6170 [5] = experiment: Antifungal efficacy in a shampoo vehicle, surviving colony count; assay type: cell-based, Malassezia furfur; details: 40 mg/ml NP108 in 10% (v/v) Pantene shampoo; 60 min exposure; FIG. 5
# Protocol: The antifungal efficacy of NP108 was tested in a shampoo vehicle. The following materials were tested: • 1. 10% (v/v) Head & Shoulders shampoo (anti-dandruff shampoo) • 2. 10% (v/v) Pantene shampoo (“normal” shampoo) • 3. 10% (v/v) Pantene shampoo (“normal” shampoo)+4% (w/v) NP108 • 4. Phosphate Buffered Saline (PBS)
# as §1, with “yeast inocula” for “yeasts”
# In the following experiment, all samples of M. furfur DSMZ6170 (0.5 McFarland Standard) were exposed to 10% (v/v) Head & Shoulders (H & S) Shampoo, 10% (v/v) Pantene Shampoo and 10% (v/v) Pantene Shampoo containing 40.0 (4.0%) mg/ml NP108. The negative control samples were exposed to phosphate-buffered saline (PBS) alone. H & S Shampoo contains zinc pyrithione (˜1%) as an antifungal agent proven to kill Malassezia spp.
# M. furfur DSMZ6170 [6] = experiment: MIC by modified CLSI M27-A3 broth dilution versus M. furfur DSMZ6170; assay type: cell-based, Malassezia furfur
# Protocol: (§4) The minimum inhibitory concentration (MIC) of all materials was determined according to methods described in the Clinical and laboratory Standards institute Approved Standard “Reference Method for Broth Dilution Antifungal Susceptibility Testing of Yeasts—Third Edition (M27-A3)” with the following modifications. In place of RPMI-1640 liquid medium, Modified Christensen's Medium, without the addition of agar, was used.
# M. pachydermatis CBS6536 [7] = experiment: MIC by modified CLSI M27-A3 broth dilution versus M. pachydermatis CBS6536; assay type: cell-based, Malassezia pachydermatis
# Protocol: as §4
# [8] = test system: Malassezia pachydermatis (CBS6536); details: for positive skin cultures / approximate number of cfu from skin biopsies, Group ave.: 10 d post-infection, 5% (w/v) NP108 or 2% (w/v) miconazole topical; for approximate number of cfu from skin biopsies, Group ave.: 3 days incubation; for Group ave. Day+10 clinical score: topical once a day for 6 d from 48 h post-infection, 5% (w/v) NP108 or 2% (w/v) miconazole, score 3.0 = significant crusting/erythema
# Protocol: Determination of the Efficacy of NP108 Against Malassezia pachydermatis (CBS6536) in a Murine Model of Localised Dermatophyte Skin Infection (10 Days Post-Infection)
# In this Malassezia spp. skin infection study, 30 male CD1 mice (10 per treatment group) were scored daily for 10 d post-infection based on the clinical observations of the infected area. Mice were treated with test article, 5% (w/v) NP108, 2% (w/v) miconazole or vehicle commencing 48 h post-infection for 6 d. Groups of 10 mice were euthanized for culture of skin tissue 10 d post-infection. Skin samples were dissected into 10 pieces per mouse and each piece streaked onto Modified Leeming Notman agar (MLNA) for culture at 30° C. for up to 7 d. Data from these samples has been recorded as number positive for Malassezia pachydermatis CBS6536 growth per mouse and approximate number of quantifiable cfu per streaked sample; plates were read after 3 d and 7 d incubation. Test article NP108 was supplied as a 5% (w/v) dosing preparation in 65% PEG14000, supplied ready to administer without any reconstitution or dilution required, as was vehicle preparation also.
# [9] = test system: M. pachydermatis NCPF3667; experiment: MIC by modified CLSI M27-A3 broth dilution versus M. pachydermatis NCPF3667; assay type: cell-based, Malassezia pachydermatis; details: Table 2
# Protocol: as §4
# human red blood cells = experiment: Haematotoxicity (haemolysis) versus 10% human red blood cells; assay type: cell-based
# Protocol: as §3
# [10] = Table 1, 1×10^6-5×10^6 cells/ml, Modified Christensen's Medium
# [11] = Table 2, M. pachydermatis CBS6536
compound,measurement,setting,value
zinc pyrithione [reference compound],antifungal activity,"M. furfur DSMZ6170 [1]; 0.4 mg/ml zinc pyrithione in H & S conditioner, FIG. 7",no antifungal activity
same,killing of M. furfur,M. furfur DSMZ6170 [2],sufficient to kill
Poly-L-Lysine [NP108],Cytotoxicity (BJ; LD50),[3],"4,500 μg/ml"
same,antifungal activity,M. pachydermatis CBS6536 [4]; 1 mg/ml NP108 (0.1%) in H & S conditioner,no antifungal activity
same,killing of M. pachydermatis,"M. pachydermatis CBS6536 [4]; 10 mg/ml NP108 (1.0%) in H & S conditioner, after as little as 3 min exposure",kills
same,killing of M. furfur (surviving cfu/ml),M. furfur DSMZ6170 [5],kills
same,MIC50 Median,M. furfur DSMZ6170 [6]; Table 2,250 µg/mL
same,MIC80 Median,M. furfur DSMZ6170 [6]; Table 2,1000 µg/mL
same,MIC80 Range,M. furfur DSMZ6170 [6]; Table 2,500 to 2000 µg/mL
same,MIC100 Median,M. furfur DSMZ6170 [6]; Table 2,2000 µg/mL
same,MIC100 Range,M. furfur DSMZ6170 [6]; Table 2,2000 to 4000 µg/mL
same,MIC50 Range,"M. furfur DSMZ6170 [6]; Table 2, three independent experiments",125 to 500 µg/mL
same,MIC50,M. pachydermatis CBS6536 [7]; [10],62.5 to 125 µg/mL
same,MIC80,M. pachydermatis CBS6536 [7]; [10],62.5 to 125 µg/mL
same,MIC100,M. pachydermatis CBS6536 [7]; [10],125 µg/mL
same,MIC50 Median,M. pachydermatis CBS6536 [7]; [11],31.25 µg/mL
same,MIC80 Median,M. pachydermatis CBS6536 [7]; [11],62.5 µg/mL
same,MIC80 Range,M. pachydermatis CBS6536 [7]; [11],31.25 to 125 µg/mL
same,MIC100 Median,M. pachydermatis CBS6536 [7]; [11],62.5 µg/mL
same,MIC100 Range,M. pachydermatis CBS6536 [7]; [11],31.25 to 125 µg/mL
same,MIC50 Range,"M. pachydermatis CBS6536 [7]; Table 2, M. pachydermatis CBS6536, three independent experiments",15.63 to 31.25 µg/mL
same,tolerability of treatment,"[8]; 5% (w/v) NP108 in 65% PEG14000, topical, throughout the study",well tolerated
same,positive skin cultures,[8],84%
same,"approximate number of cfu from skin biopsies, Group ave.",[8],34.6 cfu/mouse
same,Group ave. Day+10 clinical score,[8],0.65
same,MIC50 Median,[9],15.6 µg/mL
same,MIC80 Median,[9],15.6 to 31.3 µg/mL
same,MIC100 Median,[9],31.3 µg/mL
same,killing of M. furfur,"M. furfur DSMZ6170 [1]; 10 mg/ml NP108 (1.0%) in H & S conditioner, FIG. 7",Complete killing
same,antifungal activity,"M. furfur DSMZ6170 [1]; 10 mg/ml NP108 (1.0%) in H & S conditioner, after as little as 3 min exposure, time-dependent increase, FIG. 7",demonstrates antifungal activity
same,killing of M. furfur,"M. furfur DSMZ6170 [1]; 40 mg/ml NP108 (4.0%) in 10% (v/v) Pantene conditioner, FIG. 8",completely killing
same,Haemolysis (LD50),human red blood cells,">10,000 μg/ml"
"Clc1ccc(COC(Cn2ccnc2)c2ccc(Cl)cc2Cl)c(Cl)c1 (centres unmarked) [miconazole, reference compound]",positive skin cultures,[8],100%
same,"approximate number of cfu from skin biopsies, Group ave.",[8],131.4 cfu/mouse
same,Group ave. Day+10 clinical score,[8],1.31
